Laboratory results taken from patent publication US10052330B2, “Substituted pyrido[3,4-b]pyrazines as Syk inhibitors” (HUTCHISON MEDIPHARMA LIMITED, priority 2011, dated 2018).

Tests used:
RBL-2H3 cells = assay: IgE-induced Beta-hexosaminidase secretion in RBL-2H3 cells; type: cell-based; settings: Rattus norvegicus, RBL-2H3, RBL-2H3 cells sensitized with SPE-7, stimulated with DNP-BSA; upper bound of each range is 'less than'; read-out: IC50, IgE-induced Beta-hexosaminidase secretion
Syk kinase = Syk kinase (Homo sapiens, UniProt P43405); assay: Syk kinase enzymatic assay (Kit-Tyr 2 Peptide); type: biochemical; settings: 8 concentrations, 1 μM down to 0.0003 μM; upper bound of each range is 'less than'; read-out: IC50: Enzymatic Activity (Syk kinase)

Row | Compound | IC50 (Syk kinase) [nM] | IC50 (RBL-2H3 cells) [nM]
1 | CCS(=O)(=O)N1CCN(c2ccc(-c3cc4nccnc4c(NCC4CNCCC4(F)F)n3)cc2)CC1 (stereo not shown) [Compound 445] | 1 to 100 | 1 to 100
2 | CCS(=O)(=O)N1CCC(c2ccc(-c3cc4nccnc4c(NC[C@@H]4CNCCO4)n3)cc2)CC1 [Compound 446] | 1 to 100 | 1 to 100
3 | CS(=O)(=O)N1CCC(c2ccc(-c3cc4nccnc4c(NCC4CNCCC4(F)F)n3)cc2)CC1 (stereo not shown) [Compound 447] | 1 to 100 | 1 to 100
4 | CN1CCN(c2ccc(-c3cc4nccnc4c(NC[C@@H]4CN(C(=O)C(F)F)CCO4)n3)cc2)CC1 [Compound 449, (R)-2,2-difluoro-1-(2-((7-(4-(4-methylpiperazin-1-yl)phenyl)pyrido[4,3-b]pyrazin-5-ylamino)methyl)morpholino)ethanone] | 1 to 100 | 1 to 100
5 | Cc1cc(-c2cc3nccnc3c(NC[C@@H]3CN(C(=O)C(F)F)CCO3)n2)ccc1N1CCOCC1 [Compound 450] | 1 to 100 | 1 to 100
6 | O=C(C(F)F)N1CCO[C@H](CNc2nc(-c3ccc(N4CCOCC4)c(F)c3)cc3nccnc23)C1 [Compound 451] | 1 to 100 | 1 to 100
7 | CN(C)c1ccc(-c2cc3nccnc3c(NC[C@@H]3CN(C(=O)C(F)F)CCO3)n2)cc1 [Compound 455] | 1 to 100 | 1 to 100
8 | CN(C)c1ccc(-c2cc3nccnc3c(NC[C@@H]3CN(C(=O)C(F)F)CCO3)n2)cc1F [Compound 456] | 1 to 100 | 1 to 100
9 | O=C(C(F)F)N1CCO[C@H](CNc2nc(-c3ccc(C4CCNCC4)cc3)cc3nccnc23)C1 [Compound 458] | 1 to 100 | 100 to 1000

More lines, main results first:

Row | IC50 (Syk kinase) [nM] | Compound | IC50 (RBL-2H3 cells) [nM]
10 | 1 to 100 | O=C(CC(F)(F)F)N1CCN(c2ccc(-c3cc4nccnc4c(NC[C@@H]4CNCCO4)n3)cc2F)CC1 [Compound 428] | 1 to 100
11 | 1 to 100 | CCC(=O)N1CCN(c2ccc(-c3cc4nccnc4c(NC[C@@H]4CNCCO4)n3)cc2F)CC1 [Compound 429] | 1 to 100
12 | 1 to 100 | O=C(C1CC(F)(F)C1)N1CCN(c2ccc(-c3cc4nccnc4c(NC[C@@H]4CNCCO4)n3)cc2)CC1 [Compound 432] | 1 to 100
13 | 1 to 100 | CC(F)C(=O)N1CCN(c2ccc(-c3cc4nccnc4c(NC[C@@H]4CNCCO4)n3)cc2)CC1 (stereo partly shown) [Compound 433] | 1 to 100
14 | 1 to 100 | N#CCCC(=O)N1CCN(c2ccc(-c3cc4nccnc4c(NC[C@@H]4CNCCO4)n3)cc2)CC1 [Compound 434] | 100 to 1000
15 | 1 to 100 | CCS(=O)(=O)N1CCN(c2ccc(-c3cc4nccnc4c(NC[C@@H]4CNCCO4)n3)cc2)CC1 [Compound 435] | 1 to 100
16 | 1 to 100 | CC(C)(F)C(=O)N1CCN(c2ccc(-c3cc4nccnc4c(NC[C@@H]4CNCCO4)n3)cc2)CC1 [Compound 437] | 1 to 100
17 | 1 to 100 | CC(F)(F)C(=O)N1CCN(c2ccc(-c3cc4nccnc4c(NC[C@@H]4CNCCO4)n3)cc2)CC1 [Compound 438] | 1 to 100
18 | 1 to 100 | O=C(C1CC1(F)F)N1CCN(c2ccc(-c3cc4nccnc4c(NC[C@@H]4CNCCO4)n3)cc2)CC1 (stereo partly shown) [Compound 439] | 1 to 100
19 | 1 to 100 | CS(=O)(=O)N1CCN(c2ccc(-c3cc4nccnc4c(NC[C@@H]4CNCCO4)n3)cn2)CC1 [Compound 440] | 100 to 1000
20 | 1 to 100 | CCS(=O)(=O)N1CCN(c2ccc(-c3cc4nccnc4c(NC[C@@H]4CNCCO4)n3)cn2)CC1 [Compound 441] | 100 to 1000
21 | 1 to 100 | CS(=O)(=O)N1CCN(c2ccc(-c3cc4nccnc4c(NCC4CNCCC4(F)F)n3)cn2)CC1 (stereo not shown) [Compound 442] | 1 to 100
22 | 1 to 100 | CCS(=O)(=O)N1CCN(c2ccc(-c3cc4nccnc4c(NCC4CNCCC4(F)F)n3)cn2)CC1 (stereo not shown) [Compound 443] | 1 to 100
23 | 1 to 100 | CS(=O)(=O)N1CCN(c2ccc(-c3cc4nccnc4c(NCC4CNCCC4(F)F)n3)cc2)CC1 (stereo not shown) [Compound 444] | 1 to 100
